In patent US8802405B2, “Ethanologenic Clostridium species, Clostridium coskatii” (Coskata, Inc., priority 2010, dated 2014):

Assays:
Assay in all cases: Growth on various substrates (carbon substrate utilization)
C. coskatii PS02 = format: cell-based, Clostridium coskatii (PS02); conditions: for Growth on substrate: C. coskatii PS02, 1 g/L carbon source, N2:CO2 (80%:20%), OD600; for Chemoorganotrophic growth on substrate (in words): Clostridium coskatii (PS02)
Description: (§1) Growth was measured spectrophotometrically at 600 nm (Spectronic 20D; Milton Roy). Carbon substrate utilization was based upon growth after consecutive transfers in media containing 1 g/L of each carbon source. For carbon substrates, screening was performed under an atmosphere of N2: CO2 (80%:20%). A positive growth response was recorded for an OD600 exceeding 0.2 AU. For citrate, additional ^13C-labeled isotope experiments were conducted to determine the nature of products by analysis of final 0.2 μm-filtered product samples by carbon NMR using a Bruker UltraShield Avance 400 MHz nuclear magnetic resonance spectrometer.

C. autoethangenum = format: cell-based, Clostridium autoethanogenum; conditions: for Growth on substrate: C. autoethangenum, 1 g/L carbon source, N2:CO2 (80%:20%), OD600
Description: as §1

C. ljungdahlii PETC = format: cell-based, Clostridium ljungdahlii PETC; conditions: for Growth on substrate: 1 g/L carbon source, N2:CO2 (80%:20%), OD600
Description: as §1

C. ragsdalei = format: cell-based, Clostridium ragsdalei; conditions: for Growth on substrate: 1 g/L carbon source, N2:CO2 (80%:20%), OD600
Description: as §1

Row | SMILES | Growth on substrate (C. coskatii PS02) | Chemoorganotrophic growth on substrate (in words) (C. coskatii PS02) | Growth on substrate (C. autoethangenum) | Growth on substrate (C. ljungdahlii PETC) | Growth on substrate (C. ragsdalei) | Growth on substrate (in words) (C. ragsdalei) | Growth on substrate (in words) (C. autoethangenum; C. autoethanogenum) | Growth on substrate (in words) (C. ljungdahlii PETC)
1 | C[C@H](N)C(=O)O [Alanine] | + (A positive growth response was recorded for an OD600 exceeding 0.2 AU) | growth was observed | + (A positive growth response was recorded for an OD600 exceeding 0.2 AU) | + (A positive growth response was recorded for an OD600 exceeding 0.2 AU) | + (A positive growth response was recorded for an OD600 exceeding 0.2 AU) | – | – | –
2 | O=C(O)CCC(=O)C(=O)O [Alpha-ketoglutarate] | + (A positive growth response was recorded for an OD600 exceeding 0.2 AU) | growth was observed | + (A positive growth response was recorded for an OD600 exceeding 0.2 AU) | + (A positive growth response was recorded for an OD600 exceeding 0.2 AU) | + (A positive growth response was recorded for an OD600 exceeding 0.2 AU) | – | – | –
3 | N=C(N)NCCC[C@H](N)C(=O)O [Arginine] | + (A positive growth response was recorded for an OD600 exceeding 0.2 AU) | growth was observed | + (A positive growth response was recorded for an OD600 exceeding 0.2 AU) | + (A positive growth response was recorded for an OD600 exceeding 0.2 AU) | – | inability | – | –
4 | O=C(O)[C@H](O)[C@@H](O)[C@H](O)[C@H](O)CO [D-Gluconic Acid] | – | inability | + (A positive growth response was recorded for an OD600 exceeding 0.2 AU) | + (A positive growth response was recorded for an OD600 exceeding 0.2 AU) | – | – | – | –
5 | O=C(CO)[C@@H](O)[C@H](O)[C@H](O)CO [Fructose] | + (A positive growth response was recorded for an OD600 exceeding 0.2 AU) | growth was observed | + (A positive growth response was recorded for an OD600 exceeding 0.2 AU) | + (A positive growth response was recorded for an OD600 exceeding 0.2 AU) | + (A positive growth response was recorded for an OD600 exceeding 0.2 AU) | – | – | –
6 | N[C@@H](CCC(=O)O)C(=O)O [Glutamate] | + (A positive growth response was recorded for an OD600 exceeding 0.2 AU) | growth was observed | + (A positive growth response was recorded for an OD600 exceeding 0.2 AU) | + (A positive growth response was recorded for an OD600 exceeding 0.2 AU) | + (A positive growth response was recorded for an OD600 exceeding 0.2 AU) | – | – | –
7 | NC(=O)CC[C@H](N)C(=O)O [Glutamine] | + (A positive growth response was recorded for an OD600 exceeding 0.2 AU) | growth was observed | + (A positive growth response was recorded for an OD600 exceeding 0.2 AU) | + (A positive growth response was recorded for an OD600 exceeding 0.2 AU) | + (A positive growth response was recorded for an OD600 exceeding 0.2 AU) | – | – | –
8 | N[C@@H](Cc1c[nH]cn1)C(=O)O [Histidine] | + (A positive growth response was recorded for an OD600 exceeding 0.2 AU) | growth was observed | + (A positive growth response was recorded for an OD600 exceeding 0.2 AU) | + (A positive growth response was recorded for an OD600 exceeding 0.2 AU) | – | inability | – | –
9 | O=C(O)/C=C\C(=O)O [Maleic acid] | + (A positive growth response was recorded for an OD600 exceeding 0.2 AU) | – | + (A positive growth response was recorded for an OD600 exceeding 0.2 AU) | + (A positive growth response was recorded for an OD600 exceeding 0.2 AU) | – | inability | – | –
10 | O=C(O)CC(O)C(=O)O (stereo not drawn) [Malic acid] | + (A positive growth response was recorded for an OD600 exceeding 0.2 AU) | growth was observed | + (A positive growth response was recorded for an OD600 exceeding 0.2 AU) | + (A positive growth response was recorded for an OD600 exceeding 0.2 AU) | + (A positive growth response was recorded for an OD600 exceeding 0.2 AU) | – | – | –
11 | O=C(O)CC(=O)O [Malonic acid] | + (A positive growth response was recorded for an OD600 exceeding 0.2 AU) | growth was observed | + (A positive growth response was recorded for an OD600 exceeding 0.2 AU) | + (A positive growth response was recorded for an OD600 exceeding 0.2 AU) | + (A positive growth response was recorded for an OD600 exceeding 0.2 AU) | – | – | –
12 | O=C(O)CC(O)(CC(=O)O)C(=O)O [Na-Citrate] | + (A positive growth response was recorded for an OD600 exceeding 0.2 AU) | growth was observed | – | – | – | inability | inability | inability
13 | CC(=O)C(=O)O [Na-Pyruvate] | + (A positive growth response was recorded for an OD600 exceeding 0.2 AU) | growth was observed | + (A positive growth response was recorded for an OD600 exceeding 0.2 AU) | + (A positive growth response was recorded for an OD600 exceeding 0.2 AU) | + (A positive growth response was recorded for an OD600 exceeding 0.2 AU) | – | – | –
14 | O=C([O-])CCC(=O)[O-].[Na+].[Na+] [Na-Succinate] | + (A positive growth response was recorded for an OD600 exceeding 0.2 AU) | growth was observed | + (A positive growth response was recorded for an OD600 exceeding 0.2 AU) | + (A positive growth response was recorded for an OD600 exceeding 0.2 AU) | + (A positive growth response was recorded for an OD600 exceeding 0.2 AU) | – | – | –
15 | O=C(O)CC(=O)C(=O)O [Oxaloacetic acid] | + (A positive growth response was recorded for an OD600 exceeding 0.2 AU) | growth was observed | + (A positive growth response was recorded for an OD600 exceeding 0.2 AU) | – | – | inability | – | –
16 | C=C(OP(=O)(O)O)C(=O)O [Phosphoenol-pyruvate] | + (A positive growth response was recorded for an OD600 exceeding 0.2 AU) | growth was observed | + (A positive growth response was recorded for an OD600 exceeding 0.2 AU) | + (A positive growth response was recorded for an OD600 exceeding 0.2 AU) | + (A positive growth response was recorded for an OD600 exceeding 0.2 AU) | – | – | –
17 | C[C@H](O)[C@H](O)[C@@H](O)[C@@H](O)C=O [Rhamnose] | – | inability | + (A positive growth response was recorded for an OD600 exceeding 0.2 AU) | + (A positive growth response was recorded for an OD600 exceeding 0.2 AU) | – | – | – | –
18 | OCc1ccccc1O[C@@H]1O[C@H](CO)[C@@H](O)[C@H](O)[C@H]1O [Salicin] | + (A positive growth response was recorded for an OD600 exceeding 0.2 AU) | growth was observed | + (A positive growth response was recorded for an OD600 exceeding 0.2 AU) | + (A positive growth response was recorded for an OD600 exceeding 0.2 AU) | + (A positive growth response was recorded for an OD600 exceeding 0.2 AU) | – | – | –
19 | N[C@@H](CO)C(=O)O [Serine] | + (A positive growth response was recorded for an OD600 exceeding 0.2 AU) | growth was observed | + (A positive growth response was recorded for an OD600 exceeding 0.2 AU) | + (A positive growth response was recorded for an OD600 exceeding 0.2 AU) | + (A positive growth response was recorded for an OD600 exceeding 0.2 AU) | – | – | –
20 | O=C(O)C1=C[C@@H](O)[C@@H](O)[C@H](O)C1 [Shikimic acid] | + (A positive growth response was recorded for an OD600 exceeding 0.2 AU) | growth was observed | + (A positive growth response was recorded for an OD600 exceeding 0.2 AU) | + (A positive growth response was recorded for an OD600 exceeding 0.2 AU) | + (A positive growth response was recorded for an OD600 exceeding 0.2 AU) | – | – | –
21 | OC[C@H]1O[C@@](CO)(O[C@H]2O[C@H](CO)[C@@H](O)[C@H](O)[C@H]2O)[C@@H](O)[C@@H]1O [Sucrose] | + (A positive growth response was recorded for an OD600 exceeding 0.2 AU) | growth was observed | + (A positive growth response was recorded for an OD600 exceeding 0.2 AU) | + (A positive growth response was recorded for an OD600 exceeding 0.2 AU) | + (A positive growth response was recorded for an OD600 exceeding 0.2 AU) | – | – | –
